Laboratory results from patent US20100041756A1, “METHOD OF MODULATING B CELL FUNCTIONING” (priority 2004, published 2010).

Legend:
[1] = system: DBA/1 mice with established collagen-induced arthritis; test: Effect of tranilast on established collagen-induced arthritis (Example 1); format: in vivo, mouse; settings: for Histological score (mean ± SE): 10 days, score 0-3
Method: FIG. 1 is a graphical representation of the amelioration of established collagen-induced arthritis (CIA) by intraperitoneal administration of tranilast. DBA/1 mice were immunised with bovine type II collagen in complete Freund's adjuvant in order to induce arthritis. After onset of clinical disease mice were randomly assigned to different treatment groups and given tranilast at 100, 200 or 400 mg/kg/day or vehicle control. Clinical scores were assessed throughout the treatment period using a clinical scoring system described in the Examples. The maximum possible score per mouse is 8. There were 7-10 mice per treatment group.
FIG. 2 is a graphical representation of the amelioration of established CIA by administration of tranilast. DBA/1 mice were immunised with bovine type II collagen in complete Freund's adjuvant in order to induce arthritis. After onset of clinical disease mice were randomly assigned to different treatment groups and given tranilast at 100, 200 or 400 mg/kg/day (i.p.) or vehicle control. Paw-swelling was measured throughout the treatment. There were 7-10 mice per treatment group.
Bovine CII was purified and prepared as previously described (9) and solubilised by stirring overnight at 4° C. in 0.1M acetic acid.
Male DBA/1 mice (7-8 animals/group) were immunised i.d. at 8-12 weeks of age with bovine CII (200 μg/mouse), emulsified in CFA (Difco Laboratories, West Moseley, UK). Beginning at 14 days after immunisation, mice were inspected daily for signs of arthritis and treatment was initiated on day 1 of arthritis. This research was approved by the local Ethical Review Process Committee and by the Home Office of the United Kingdom.
Tranilast was dissolved in 1% NaHCO3 by heating to 70° C. and injected i.p. at 100, 200 or 400 mg/kg/day.
The development of arthritis was assessed daily for the duration of the experiment. The clinical severity of arthritis was graded as follows, 0=normal, 1=slight swelling and/or erythema, 2=pronounced oedematous swelling. Each limb was graded, allowing a maximal clinical score of 8 for each animal. Swelling of hind paws was recorded with a pair of calipers. All clinical evaluations were performed in a blinded manner.
At the end of the treatment period the mice were killed, bled and their joints were processed for histology. The first limb to show clinical evidence of arthritis was removed, fixed, decalcified, and embedded before sectioning and staining with haemotoxylin and eosin. Saggital sections were examined by microscopy in a blinded fashion and joints were graded as follows: 0=normal; 1=mild synovitis without cartilage loss or bone erosion; 2=moderate or severe synovitis with erosions present but normal joint architecture intact; 3=severe synovitis with extensive erosions and normal joint architecture disrupted.
DBA/1 mice were immunised with bovine type II collagen in complete Freund's adjuvant in order to induce arthritis. After onset of clinical disease mice were randomly assigned to different treatment groups and given tranilast at 100, 200 or 400 mg/kg/day (i.p.) or vehicle control. Treatment was continued for 10 days after which time the mice were killed and paws were processed for histology. Joints were graded histologically in a blinded fashion.

[2] = system: T cells stimulated with anti-CD3/anti-CD28; test: Purified T cell proliferation, anti-CD3/anti-CD28, 3H-thymidine incorporation (Example 4); format: cell-based, mouse
Method: (§1) FIG. 10 is a graphical representation depicting that 3,4-DAA and 3-HAA inhibit B and T cell proliferation in vitro. Purified B and T cells were stimulated for 72 h with anti-CD40 (a), or anti-CD3/anti-CD28 (b) respectively, in the presence of varying doses of 3,4-DAA, or 3-HAA.
(§2) A single cell suspension was prepared from spleen by mincing through a cell strainer, and erythrocytes were lysed using an ammonium chloride solution (Sigma, St Louis, Mo., USA). B cells were positively enriched by using anti-IgM MACS microbeads, and T cells were positively enriched using anti-CD4 MACS microbeads and the MACS system, according to the manufacturer's guidelines (Miltenyi Biotec, Bergisch Gladbach, Germany). Purity was assessed by flow cytometric analysis (B cell>90% CD19+, T cell>90% CD4+). Cells were cultured at 5×10^5 cells/ml in 200 μl complete RPMI, as above, in a flat bottom 96-well plate and cultured for 72 h. B cells were stimulated with anti-CD40 monoclonal antibody (10 μg/ml; BD), and T cells were stimulated with 5 μg/ml plate-bound anti-CD3 (BD), 5 μg/ml soluble anti-CD28 (BD). Tranilast, 3-HAA, or vehicle (DMSO) were incubated at concentrations stated with the cultures. 48 hours after stimulation, 100 μl culture medium was collected, and cells were pulsed with 1 μCi ^3H thymidine per well for 18 h. Cells were then harvested and plates assessed for incorporation. Each assay was performed on a minimum of 3 occasions. Data shown is of one representative experiment, and is expressed as mean+/−SD of triplicate in culture. IFN-γ, IL-10 and IL-5 levels was assessed in the culture medium by ELISA, as above.

[3] = system: T cells stimulated with anti-CD3/anti-CD28; test: Cytokine production by stimulated T cells in vitro (ELISA); format: cell-based, mouse
Method: as §1, §2

## COc1ccc(/C=C/C(=O)Nc2ccccc2C(=O)O)cc1OC [Tranilast, 2-[[3-(3,4-dimethoxyphenyl)-1-oxo-2-propenyl]amino]benzoic acid]
[1]; 100 mg/kg/day i.p.
  Histological score (mean ± SE): 1.64 ± 0.35
[1]; 200 mg/kg/day i.p.
  Histological score (mean ± SE): 1.19 ± 0.35
[1]; 400 mg/kg/day i.p.
  Histological score (mean ± SE): 0.57 ± 0.20
[1]; 100, 200 or 400 mg/kg/day i.p., 10 days (FIG. 1)
  clinical scores: reduced clinical scores in a dose-dependent fashion
[1]; 100, 200 or 400 mg/kg/day i.p., 10 days (FIG. 2)
  paw-swelling: reduced paw-swelling in a dose-dependent fashion
[1]; compared to control mice, end of 10 day treatment
  synovitis, cartilage loss and bone erosion (histology): reduced level of synovitis, cartilage loss and bone erosion
[2]; Mus musculus, T-cell, anti-CD3/CD28, 72 h, 3H-thymidine (FIG. 10B), read-out: IC50 for inhibition of T cell proliferation
  IC50: 28 µM
[2]; anti-CD3/CD28, varying doses (FIG. 10B)
  T cell proliferation: dose-dependently inhibited
[3]; FIG. 10C
  IFN-γ production by T-cells: dose-dependently reduced
[3]; FIG. 10D
  IL-10 production by T-cells: dose-dependently inhibited
[3]; FIG. 10E
  IL-5 production by T-cells: dose-dependently inhibited
